Patent publication US11021481B2, “Substituted isoindolin-1-ones and 2,3-dihydro-1h-pyrrolo[3,4-c]pyridin-1-ones as HPK1 antagonists” (Nimbus Saturn, Inc., priority 2019, dated 2021)

What follows are molecules tested against HPK1 (Homo sapiens (Human), UniProt Q92918) (assay: HPK1 biochemical enzyme assay (microfluidic mobility shift assay)). Conditions: 1.5 nM HPK1, ATP 1 mM final, 30 min preincubation, 60 min at RT, Caliper EZ Reader; read-out: HPK1 1000UMATP caliper IC50.
Summary of the method: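 Ten-point compound titrations (top 3 μM final) preincubated 30 min with HPK1 and substrate, then reaction started with 1 mM ATP and 1 μM substrate, 5 mM MgCl2. After 60 min at RT, reaction terminated and product measured by microfluidic mobility shift.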

HPK1, sequence (Q92918 whole entry): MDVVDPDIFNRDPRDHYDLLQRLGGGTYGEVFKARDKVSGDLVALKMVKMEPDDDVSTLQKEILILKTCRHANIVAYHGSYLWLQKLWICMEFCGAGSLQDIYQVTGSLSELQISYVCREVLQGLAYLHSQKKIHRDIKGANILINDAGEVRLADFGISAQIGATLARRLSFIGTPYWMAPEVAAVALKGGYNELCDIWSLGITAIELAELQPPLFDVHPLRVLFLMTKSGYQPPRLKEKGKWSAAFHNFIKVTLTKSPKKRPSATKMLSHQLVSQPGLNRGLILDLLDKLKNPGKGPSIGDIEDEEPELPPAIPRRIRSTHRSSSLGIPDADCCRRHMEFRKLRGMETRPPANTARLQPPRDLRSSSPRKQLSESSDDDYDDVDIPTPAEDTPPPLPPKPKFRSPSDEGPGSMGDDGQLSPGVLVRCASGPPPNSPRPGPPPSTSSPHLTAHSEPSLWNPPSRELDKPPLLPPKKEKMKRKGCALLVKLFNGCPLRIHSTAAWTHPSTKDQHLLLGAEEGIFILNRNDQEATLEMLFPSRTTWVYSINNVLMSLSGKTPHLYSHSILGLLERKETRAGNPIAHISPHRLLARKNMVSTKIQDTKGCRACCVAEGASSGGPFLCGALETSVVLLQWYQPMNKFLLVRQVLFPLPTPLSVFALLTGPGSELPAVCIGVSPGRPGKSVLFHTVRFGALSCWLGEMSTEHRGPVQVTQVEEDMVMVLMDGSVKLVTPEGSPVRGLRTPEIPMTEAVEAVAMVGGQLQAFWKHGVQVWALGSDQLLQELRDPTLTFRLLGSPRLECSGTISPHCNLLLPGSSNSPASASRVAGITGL

Compound	IC50 [nM]
Cc1ccn2c(-c3ncc(Nc4ccc(N5CCNCC5)cn4)c4c3CNC4=O)cnc2c1 [I-124, 4-(7-methylimidazo [1,2-a]pyridin-3-yl)-7-[(5-piperazin-1-yl-2-pyridyl)amino]-2,3-dihydropyrrolo [3,4-c]pyridin-1-one]	< 100
O=C1NCc2c(-c3ccc4cnccn34)ccc(Nc3ccc(N4CCC(O)CC4)cn3)c21 [I-369, 7-((5-(4-hydroxypiper-idin-1-yl)pyridin-2-yl)amino)-4-(pyrrolo[1,2-a]pyrazin-6-yl)isoindolin-1-one]	< 100
O=C1NCc2c(-c3cnc4cc(F)ccn34)ccc(Nc3ccc([C@@H]4CCOC4)c(CN4CCC(F)(F)C4)n3)c21 [I-718, (S)-7-((6-((3,3-difluoropyrro-lidin-1-yl)methyl)-5-(tetrahydrofuran-3-yl)pyridin-2-yl)amino)-4-(7-fluoroimidazo [1,2-a]pyridin-3-yl)isoindolin-1-one]	< 100
CN1CCN(c2ccc(Nc3ccc(-c4c(F)cnc5c4ccn5C)c4c3C(=O)NC4)nc2)CC1 [I-67, 4-(5-fluoro-1-methyl-pyrrolo[2,3-b]pyridin-4-yl)-7-[[5-(4-methylpiperazin-1-yl)-2-pyridyl]amino] isoindolin-1-one]	< 100
CN1CCN(c2ccc(Nc3cnc(-c4c[nH]c5cc(F)ccc45)c4c3C(=O)NC4)nc2)CC1 [I-53, 4-(6-fluoro-1H-indol-3-yl)-7-[[5-(4-methylpiperazin-1-yl)-2-pyridyl]amino]-2,3-dihydropyrrolo [3,4-c]pyridin-1-one]	100 to 1000
Cn1ccc2c(-c3ncc(Nc4ccc(N5CCC[C@@H](C(C)(C)O)C5)cn4)c4c3CNC4=O)ccnc21 [I-212, 7-[[5-[(3R)-3-(1-hydroxy-1-methyl-ethyl)-1-piperidyl]-2-pyridyl]amino]-4-(1-methylpyrrolo [2,3-b]pyridin-4-yl)-2,3-dihydropyrrolo [3,4-c]pyridin-1-one]	< 100
Cc1ccn2c(-c3ccc(Nc4ccc(N5CCC(O)CC5)cn4)c4c3CNC4=O)cnc2c1 [I-126, 7-[[5-(4-hydroxy-1-piperidyl)-2-pyridyl]amino]-4-(7-methylimidazo [1,2-a]pyridin-3-yl)isoindolin-1-one]	< 100
COC[C@H]1CN(c2ccc(Nc3cnc(-c4ccnc5c4ccn5C)c4c3C(=O)NC4)nc2CN(C)C)CCO1 [I-798, (R)-7-((6-((dimethylamino)-methyl)-5-(2-(methoxymeth-yl)morpholino)pyridin-2-yl)amino)-4-(1-methyl-1H-pyrrolo[2,3-b]pyridin-4-yl)-2,3-dihydro-1H-pyrrolo[3,4-c]pyridin-1-one]	< 100
C[C@H]1C[C@H](O)CCN1c1ccc(Nc2ccc(-c3cnc4cnccn34)c3c2C(=O)NC3)nc1 [I-352, 7-((5-((2S,4R)-4-hydroxy-2-methylpiperidin-1-yl)pyridin-2-yl)amino)-4-(imidazo[1,2-a]pyrazin-3-yl)isoindolin-1-one]	< 100
O=C1NCc2c(-c3cnc4cc(F)ccn34)ccc(Nc3ccc(C4CCOC4)c(N4CCNCC4)n3)c21 (stereo in doubt) [I-773, (R)-4-(7-fluoroimidazo [1,2-a]pyridin-3-yl)-7-((6-(piperazin-1-yl)-5-(tetrahydrofuran-3-yl)pyridin-2-yl)amino)isoin-dolin-1-one]	100 to 1000
Cn1ccc2c(-c3ncc(Nc4cccc(N5CC[C@H]6CNC[C@H]65)n4)c4c3CNC4=O)ccnc21 [I-440, 7-((6-((3aS,6aS)-hexahydropy-rrolo[3,4-b]pyrrol-(2H)-yl)pyridin-2-yl)amino)-4-(1-methyl-1H-pyrrolo[2,3-b]pyridin-4-yl)-2,3-dihydro-1H-pyrrolo[3,4-c]pyridin-1-one]	< 100
CN1CCN(c2ccc(Nc3cnc(-c4c[nH]c5ccccc45)c4c3C(=O)NC4)nc2)CC1 [I-2, 4-(1H-indol-3-yl)-7-[[5-(4-methylpiperazin-1-yl)-2-pyridyl]amino]-2,3-dihydropyrrolo [3,4-c]pyridin-1-one]	100 to 1000
Cn1ccc2c(-c3ccc(-n4ccc(N5CCC[C@@](C)(O)C5)n4)c4c3CNC4=O)ccnc21 (single isomer, unassigned) [I-305]	> 1000
O=C1NCc2c(-c3cnc4cnccn34)ccc(Nc3ccc(N4CC(O)C4)cn3)c21 [I-315, 7-((5-(3-hydroxyazeti-din-1-yl)pyridin-2-yl)amino)-4-(imidazo[1,2-a]pyrazin-3-yl)isoindolin-1-one]	< 100
CC(C)(O)[C@H]1CN(c2ccc(Nc3cnc(-c4cnc5c(F)cccn45)c4c3C(=O)NC4)nc2)CCO1 [I-458, 4-(8-fluoroimidazo [1,2-a]pyridin-3-yl)-7-[[5-[(2R)-2-(1-hydroxy-1-methyl-ethyl)morpholin-4-yl]-2-pyridyl]amino]-2,3-dihydropyrrolo [3,4-c]pyridin-l-one]	< 100
O=C1NCc2c(-c3cnc4cnccn34)ccc(Nc3ccc(N4C[C@H]5COC[C@H]5C4)cn3)c21 [I-318, 4-(imidazo[1,2-a]pyrazin-3-yl)-7-((5-((3aR,6aS)-tetrahydro-1H-furo[3,4-c]pyrrol-5(3H)-yl)pyridin-2-yl)amino)isoin-dolin-1-one]	< 100

Continued, values first:

IC50 [nM]	Compound
< 100	C[C@H](c1ccc(Nc2ccc(-c3cnc4cc(F)ccn34)c3c2C(=O)NC3)nc1)N1CCOCC1 (single isomer, unassigned) [I-639]
100 to 1000	CN1CCN(c2ccc(Nc3ccc(-c4ccn5ncnc5c4)c4c3C(=O)NC4)nc2)CC1 [I-36, 7-[[5-(4-methylpiperazin-1-yl)-2-pyridyl]amino]-4-([1,2,4]triazolo [1,5-a]pyridin-7-yl)isoindolin-1-one]
< 100	Cn1ccc2c(-c3c(Cl)cc(Nc4ccc(N5CCC(O)CC5)cn4)c4c3CNC4=O)ccnc21 [I-190, 5-chloro-7-[[5-(4-hydroxy-1-piperidyl)-2-pyridyl]amino]-4-(1-methylpyrrolo[2,3-b]pyridin-4-yl)isoindolin-1-one]
> 1000	Cn1ccc2c(-c3ccc(-n4ccc(N5CCC[C@](C)(O)C5)n4)c4c3CNC4=O)ccnc21 (single isomer, unassigned) [I-306]
< 100	C[C@@H](c1nc(Nc2ccc(-c3cnc4cc(F)ccn34)c3c2C(=O)NC3)ccc1[C@H]1CCOC1)N(C)C (single isomer, unassigned) [I-822]
< 100	Cc1cccc2c(-c3ccc(Nc4ccc(C5CCOC5)c(CN(C)C)n4)c4c3CNC4=O)cnn12 (stereo in doubt) [I-710, (R)-7-((6-((dimethylamino)-methyl)-5-(tetrahydrofuran-3-yl)pyridin-2-yl)amino)-4-(7-methylpyra-zolo[1,5-a]pyridin-3-yl)isoindolin-1-one]
< 100	Cn1ccc2c(-c3ncc(Nc4cccc(N5C[C@@H](N6CCC6)CC5=O)n4)c4c3CNC4=O)ccnc21 [I-725, (S)-7-((6-(4-(azetidin-1-yl)-2-oxopyrrolidin-1-yl)pyridin-2-yl)amino)-4-(1-methyl-1H-pyrrolo[2,3-b]pyridin-4-yl)-2,3-dihydro-1H-pyrrolo[3,4-c]pyridin-1-one]
< 100	O=C1NCc2c(-c3cnn4c3CCCC4)ncc(Nc3ccc(N4CCOCC4)cn3)c21 [I-367, 7-((5-morpholinopyridin-2-yl)amino)-4-(4,5,6,7-tetrahdropyra-zolo[1,5-a]pyridin-3-yl)-2,3-dihydro-1H-pyrrolo[3,4-c]pyridin-1-one]
< 100	CN(C)Cc1nc(Nc2ccc(-c3cnc4cc(F)ccn34)c3c2C(=O)NC3)ccc1N1CCOC[C@@H](O)C1 (single isomer, unassigned) [I-820]
